Laboratory results published in ChEMBL document CHEMBL3734667 (Bioorg Med Chem, 2015).

Columns and labels:
[1] = Cytotoxicity against MDBK cells assessed as cell viability after 48 to 96 hrs by MTT assay; format: cell-based, Bos taurus; settings: cattle
Coxsackievirus B5 [2] = experiment: Antiviral activity against human CVB5 infected in african green monkey Vero76 cells assessed as inhibition of virus-induced cytopathogenicity after 3 days by plaque reduction assay; format: functional, organism-based; settings: Enterovirus B, Vero 76, 72 h
Vaccinia virus = experiment: Antiviral activity against Vaccinia virus; format: functional, organism-based; settings: Orthopoxvirus vaccinia
[3] = test system: Bovine viral diarrhea virus 1; experiment: Antiviral activity against BVDV infected in MDBK cells assessed as inhibition of virus-induced cytopathogenicity after 3 to 4 days by MTT assay; format: functional, organism-based; settings: Bovine viral diarrhea virus isolates and strains
Yellow fever virus = experiment: Antiviral activity against YFV infected in BHK-21 cells assessed as inhibition of virus-induced cytopathogenicity after 3 to 4 days by MTT assay; format: functional, organism-based
Human orthopneumovirus = experiment: Antiviral activity against human RSV infected in african green monkey Vero76 cells assessed as inhibition of virus-induced cytopathogenicity after 5 days by plaque reduction assay; format: functional, organism-based; settings: human respiratory syncytial virus, Vero 76, 120 h
[4] = Selectivity index, ratio of CC50 for human MT4 cells to EC50 for HIV-1; format: toxicity, cell-based; settings: human immunodeficiency virus 1, MT4 cells; read-out: Ratio CC50/EC50
[5] = test system: Vesicular stomatitis virus; experiment: Antiviral activity against VSV; format: functional, organism-based
[6] = Cytotoxicity against african green monkey Vero 76 cells assessed as cell viability after 48 to 96 hrs by crystal violet staining method; format: cell-based; settings: chlorocebus sabaeus
[7] = test system: Human immunodeficiency virus 1; experiment: Antiviral activity against HIV-1 infected in MT4 cells assessed as inhibition of virus-induced cytopathogenicity after 4 days by MTT assay; format: functional, organism-based; settings: Human immunodeficiency virus 1, MT4, 96 h
[8] = Cytotoxicity against human MT4 cells assessed as cell viability after 96 hrs by MTT assay; format: cell-based
[9] = Cytotoxicity against BHK cells assessed as cell viability after 48 to 96 hrs by MTT assay; format: cell-based, Mesocricetus auratus; settings: hamster
[10] = test system: Respiratory syncytial virus; experiment: Antiviral activity against RSV; format: functional, organism-based; settings: human respiratory syncytial virus
Coxsackievirus B2 = experiment: Antiviral activity against Human coxsackievirus B2; format: functional, organism-based; settings: Enterovirus B
[11] = target: Peroxisome proliferator-activated receptor gamma (Homo sapiens, UniProt P37231); experiment: Agonist activity at human PPAR gamma in human HepG2 cells after 20 hrs by luciferase reporter assay; format: cell-based
Peroxisome proliferator-activated receptor gamma, sequence (P37231 whole entry): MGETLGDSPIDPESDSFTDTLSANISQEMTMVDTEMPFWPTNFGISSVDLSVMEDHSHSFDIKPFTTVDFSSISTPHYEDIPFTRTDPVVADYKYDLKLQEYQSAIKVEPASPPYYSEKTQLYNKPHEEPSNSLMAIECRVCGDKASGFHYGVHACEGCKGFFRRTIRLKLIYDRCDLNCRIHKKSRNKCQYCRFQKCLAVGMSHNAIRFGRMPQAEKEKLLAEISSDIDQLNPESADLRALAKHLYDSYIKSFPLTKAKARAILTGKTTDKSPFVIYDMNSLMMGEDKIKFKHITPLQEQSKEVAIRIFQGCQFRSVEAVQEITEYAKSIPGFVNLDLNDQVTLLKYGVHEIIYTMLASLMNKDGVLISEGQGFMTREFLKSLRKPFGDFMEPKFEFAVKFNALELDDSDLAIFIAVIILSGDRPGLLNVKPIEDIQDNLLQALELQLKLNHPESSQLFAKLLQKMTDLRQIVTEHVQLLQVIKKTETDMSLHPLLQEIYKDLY

Poliovirus 1 [12] = experiment: Antiviral activity against Human poliovirus 1 Sabin infected in african green monkey Vero76 cells assessed as inhibition of virus-induced cytopathogenicity by plaque reduction assay; format: functional, organism-based; settings: Enterovirus C, Vero 76
[13] = target: Peroxisome proliferator-activated receptor alpha (Homo sapiens, UniProt Q07869); experiment: Agonist activity at human PPAR alpha in human HepG2 cells after 20 hrs by luciferase reporter assay; format: cell-based
Peroxisome proliferator-activated receptor alpha, sequence (Q07869 whole entry): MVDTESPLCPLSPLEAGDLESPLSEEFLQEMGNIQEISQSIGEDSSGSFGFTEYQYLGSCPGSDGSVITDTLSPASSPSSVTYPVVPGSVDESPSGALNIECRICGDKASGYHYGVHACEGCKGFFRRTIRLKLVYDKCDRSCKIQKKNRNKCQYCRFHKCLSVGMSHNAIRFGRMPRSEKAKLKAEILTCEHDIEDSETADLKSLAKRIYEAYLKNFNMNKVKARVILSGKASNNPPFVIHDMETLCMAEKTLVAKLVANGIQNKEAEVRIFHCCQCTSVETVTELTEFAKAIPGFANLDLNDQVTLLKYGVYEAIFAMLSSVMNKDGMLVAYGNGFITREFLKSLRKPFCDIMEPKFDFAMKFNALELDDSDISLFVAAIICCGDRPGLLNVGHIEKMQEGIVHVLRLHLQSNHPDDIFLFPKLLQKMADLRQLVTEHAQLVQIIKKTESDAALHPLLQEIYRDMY

Poliovirus 2 = experiment: Antiviral activity against Human poliovirus 2; format: functional; settings: Enterovirus C
Influenza B virus = experiment: Antiviral activity against Influenza B virus; format: functional
Human alphaherpesvirus 1 = experiment: Antiviral activity against HSV1; format: functional, organism-based
Coxsackievirus B5 [14] = experiment: Ratio of NM108 EC50 to compound EC50 for human CVB5; format: functional
[15] = Selectivity index, ratio of CC50 for african green monkey Vero76 cells to EC50 for human CVB5; parameters: species or system Coxsackievirus B5, Vero 76
[16] = test system: Mammalian orthoreovirus 1; experiment: Antiviral activity against Reo-1 virus infected in BHK-21 cells assessed as inhibition of virus-induced cytopathogenicity after 3 to 4 days by MTT assay; format: functional, cell-based; settings: Mammalian orthoreovirus 1, BHK-21
Coxsackievirus B5 [17] = experiment: Ratio of NM176 EC50 to compound EC50 for human CVB5; format: functional
Semliki Forest virus = experiment: Antiviral activity against Semliki forest virus assessed as inhibition of virus growth at 170 uM; format: functional
[18] = Inhibition of HCV helicase; parameters: species or system Hepacivirus hominis
[19] = Selectivity index, ratio of CC50 for BHK-21 cells to EC50 for WNV; parameters: species or system West Nile virus
[20] = Selectivity index, ratio of CC50 for african green monkey Vero76 cells to EC50 for human RSV; parameters: species or system human respiratory syncytial virus, Vero 76
dengue virus type 2 = experiment: Antiviral activity against DENV-2 infected in BHK-21 cells assessed as inhibition of virus-induced cytopathogenicity after 3 to 4 days by MTT assay; format: functional, organism-based
West Nile virus = experiment: Antiviral activity against WNV infected in BHK-21 cells assessed as inhibition of virus-induced cytopathogenicity after 3 to 4 days by MTT assay; format: functional, organism-based
[21] = Selectivity index, ratio of CC50 for MDBK cells to EC50 for BVDV; parameters: species or system Bovine viral diarrhea virus 1
[22] = Selectivity index, ratio of CC50 for BHK-21 cells to EC50 for YFV; parameters: species or system Yellow fever virus
[23] = Selectivity index, ratio of CC50 for BHK-21 cells to EC50 for DENV-2
Poliovirus 1 [24] = experiment: Antiviral activity against Human poliovirus 1 Sabin; format: functional, organism-based; settings: Enterovirus C
[25] = Selectivity index, ratio of CC50 for african green monkey Vero76 cells to EC50 for human Sb-1; parameters: species or system Human poliovirus 1 strain Sabin, Vero 76

Row | Structure (SMILES) | CC50 [1] | EC50 (Coxsackievirus B5 [2]) | EC50 (Vaccinia virus) | EC50 [3] | EC50 (Yellow fever virus) | EC50 (Human orthopneumovirus) | EC50 [5] | CC50 [6] | EC50 [7] | CC50 at 96 h [8] | CC50 [9] | EC50 (Poliovirus 1 [12]) | further results
1 | CN(C)c1cccc(C(=O)OCCn2nc3ccccc3n2)c1 | > 100 µM | > 100 µM | > 100 µM | > 100 µM | > 100 µM | > 100 µM | > 100 µM | > 100 µM | 56 µM | > 100 µM | > 100 µM | – | selectivity ratio [4]: 1.78
2 | Clc1ccc2c(c1)nc(Cn1nnc3ccccc31)n2CC[C@@H]1CCCN2CCCC[C@H]12 | – | – | – | – | – | – | – | – | – | – | – | – | EC50 [10]: 0.02 µM
3 | CCC(=O)Nc1ccc(-n2nc3cc(C)c(C)cc3n2)cc1 | – | – | – | – | – | – | – | – | – | – | – | – | EC50 (Coxsackievirus B2): 10 µM
4 | Cc1cc(-n2nc3ccccc3n2)cc(C)c1OC(C)(C)C(=O)O | > 100 µM | > 100 µM | > 100 µM | > 100 µM | > 100 µM | > 100 µM | > 100 µM | ≥ 100 µM | > 100 µM | > 100 µM | > 100 µM | > 100 µM | EC50 [11]: 0.48 µM; EC50 [13]: 0.096 µM
5 | Clc1c(Cl)c(Cl)c2[nH]nnc2c1Cl | – | – | – | – | – | – | – | – | – | – | – | – | EC75 (Poliovirus 2): 8.1 µM; EC75 (Influenza B virus): 3 µM
6 | Cc1ccc2nn(-c3ccc(OCCCC(C)(C)C(=O)O)cc3)nc2c1 | 24 µM | 0.15 µM | > 100 µM | > 100 µM | > 100 µM | > 100 µM | > 100 µM | 15 µM | > 100 µM | 53 µM | 17 µM | > 100 µM | EC50 (Human alphaherpesvirus 1): > 100 µM; Ratio EC50 (Coxsackievirus B5 [14]): 133; Ratio CC50/EC50 [15]: 100; EC50 [16]: > 100 µM; Ratio EC50 (Coxsackievirus B5 [17]): 200
7 | O=c1n(Cc2nc3ccccc3n2CCCCO)c2cnccc2n1C1CC1 | – | – | – | – | – | – | – | – | – | – | – | – | EC50 [10]: 0.01 µM
8 | O=c1[nH]c2cc(S(=O)(=O)n3nnc4cc(Cl)ccc43)ccc2o1 | – | – | – | – | – | – | – | – | – | – | – | – | inhibition at 170 µM (Semliki Forest virus): 99%
9 | CCCn1nc2c(Br)c(Br)c(Br)c(Br)c2n1 | – | – | – | – | – | – | – | – | – | – | – | – | IC50 [18]: 5.8 µM
10 | OCC1OC(n2nnc3cc(Cl)c(Cl)cc32)C(O)C1O (stereo unspecified) | – | – | – | – | – | – | – | – | – | – | – | – | IC50 [18]: 1.5 µM; EC75 (Influenza B virus): 750 µM
11 | Oc1ccc(-n2nc3cc(Cl)c(Cl)cc3n2)cc1 | 37 µM | 25 µM | > 100 µM | 14 µM | 6 µM | 8 µM | > 100 µM | 50 µM | > 100 µM | 47 µM | 28 µM | > 100 µM | EC50 (Human alphaherpesvirus 1): > 100 µM; Ratio CC50/EC50 [19]: 2.15; Ratio CC50/EC50 [20]: 6.25; EC50 (dengue virus type 2): 8 µM; EC50 (West Nile virus): 13 µM; Ratio CC50/EC50 [21]: 2.64; Ratio CC50/EC50 [22]: 4.67; Ratio CC50/EC50 [15]: 2; EC50 [16]: > 100 µM; Ratio CC50/EC50 [23]: 3.5
12 | CC(=O)Nc1ccc(-n2nnc3ccc(C(F)(F)F)cc32)cc1 | – | – | – | – | – | – | – | – | – | – | – | – | EC50 (Poliovirus 1 [24]): 30 µM
13 | Oc1ccc(-n2nc3ccc(C(F)(F)F)cc3n2)cc1 | 47 µM | > 100 µM | > 100 µM | 30 µM | 17 µM | 10 µM | > 100 µM | > 100 µM | > 100 µM | ≥ 100 µM | 65 µM | 80 µM | EC50 (Human alphaherpesvirus 1): > 100 µM; Ratio CC50/EC50 [20]: >10; EC50 (dengue virus type 2): 17 µM; EC50 (West Nile virus): > 100 µM; Ratio CC50/EC50 [25]: >1.25; Ratio CC50/EC50 [21]: 1.57; Ratio CC50/EC50 [22]: 3.82; EC50 [16]: > 100 µM; Ratio CC50/EC50 [23]: 3.82
